Measured values as given in the OligoGym collection.
These antisense oligonucleotides have a phosphorothioate backbone; sugars and methylation of C are not fully specified.

These sequences were tested against RIPK1. Conditions: ASO.
Note: test concentration or dose not given here.

Sequence | remaining target (mRNA or protein) (fraction of control)
CTGTGGCTGAATTTGACC | ≥ 1
CATGGTCAATTTCATCAA | ≥ 1
TGGAAGTCATTATCAACA | ≥ 1

These sequences were tested against SMAD4. Conditions: ASO.

Sequence | remaining target (mRNA or protein) (fraction of control)
TTTGATGCTCTGTCTTGG | ≥ 1
GAATTTCAATCCAGCAAG | ≥ 1
CAGTAAATCCATTCTGCT | ≥ 1
AATCCTTTCCGACCAGCC | 0.26
TGAAGCCTCCCATCCAAT | 0.9
CATACTTGATGGAGCATT | ≥ 1
AACACCAATACTCAGGAG | ≥ 1
TAGGTAGAGTGACGCTGC | ≥ 1
ACCTTTCCCTATGAATGA | 0.65
TTTAAGGGATTCTCAATA | ≥ 1
CAGGTGGTAGTGCTGTTA | ≥ 1
TAAAATCAGCAATACTGG | 0.79
GTGGACAACGATGGCTGT | ≥ 1
CATACATAACAGGTGAAG | 0.91
CCTTCACTATGGCTGCCC | 0.3
TGACAAGTTCTGAAGAGG | ≥ 1
CAGTAACAATAGGGCAGC | ≥ 1
TCTGTCTAAGTAGTAACT | ≥ 1
TACAACTCGTTCGTAGTG | ≥ 1
ATCCTTTGGAAACAGTGA | ≥ 1

Sequence | remaining target (mRNA or protein) (fraction of control)
TGACGCTGCTTTTAGTGT | ≥ 1
TTCACAAAACTCATCCTG | ≥ 1
CAATGGCTTCTGTCCTGT | ≥ 1
TGGATGAAAGATTACAAT | ≥ 1
ACAGAAGAATACAACTAC | ≥ 1
TTGGGAAAGTTGGCAGTG | ≥ 1
GTTTCTCCTAATCTTCAA | ≥ 1
CATAGGCGGGTGGTGCTG | ≥ 1
GAATGAAGGAAAAGAAAT | ≥ 1
AGACACTATCACATTTTA | ≥ 1
ACGATTACTTGGTGGATG | 0.88
GACAGGCATCATTACTTG | ≥ 1
AAAGCAGAAGAAAAGTGA | ≥ 1
AACATCACCTTCACCTTT | 0.45
GTAGTCCACCATCCTGAT | ≥ 1
GGCAGCAAACACATTTTC | ≥ 1
CTGTATGGTAACACATTT | ≥ 1
GATGACACTGACGCAAAT | ≥ 1
GTGTTTCTTTGATGCTCT | ≥ 1
ACTCTCTCCACCTTGTCT | 0.57

Each sequence was assayed against FADD. Conditions: ASO.

Sequence | remaining target (mRNA or protein) (fraction of control)
CCATCAGGACGCTTCGGA | 0.93
CCAGCGGCCCAAGGATTC | ≥ 1
GTCTGAGACTTTGAGCTG | ≥ 1
GGTTCCAACTTTCCAACT | 0.97
ACCAGGAACGGGTCCATG | 0.92
CTTCGCTCCGATTCCTGG | ≥ 1
CCCCGCCTCGAAGTCGTC | 0.82
CTCCGGTGCCTGATTCAC | 0.94
CACACAGGTCTTCTTCCC | ≥ 1
GTTGCGTTCTCCTTCTCT | 0.76
AAGGAAGATTTAGAGAGT | 0.72
GCTGGGCTACCTTCCTGG | ≥ 1
CTCCAGCTTGCGCTTGAC | 0.78
CCCCACATTATCACATAT | 0.9
CCTGCTGGGTCTTCACAG | ≥ 1
GAACCAAAGTCCAGGCTG | ≥ 1
ATGGGCTCTGGTGAAGGA | ≥ 1
CGCGCCCGAGGCATAGGA | 0.75
CACCACAGCACCCCGCCT | 0.95
GCCAGCCTTCTCCAATCT | 0.62

Sequence | remaining target (mRNA or protein) (fraction of control)
AAGATACGAGATCCCGCT | 0.64
TGGAGTAACAGTGTGACT | 0.64
CATGGAGAAGAGGTCTAG | 0.71
AGTTGTAAAGCTGTGTTT | 0.57
TCATAGTGAGGAAGAAAT | ≥ 1
TACCAGGTCAGCCACCAG | 0.91
GGCCCCACTCCTGTTCTG | 0.52
GGACCACGGCCAACCAGG | 0.58
CTCCCGCACACGCTCTGT | ≥ 1
TCATCAGCACCTCACAGA | 0.74
CTGTGTTCTTCCAGATTC | ≥ 1
GCCCCTACTTAGCAGTCT | 0.65
CTCCAGGTCGTTCTGCTC | 0.65
CCGGTGGCCTCCAAGGAA | ≥ 1
GACAGGCTGGACGACACC | 0.62
ACACCGAGTGCAGCAGCA | 0.82
GCTCGCTGCTCGACAGGC | 0.74
CGCAGCTTGAGTTCAGAA | 0.65
GATGCTGTCGATCTTGGT | 0.91
TTTGATACAAAACAGTAA | 0.42

What follows are sequences tested against MAP2K4. Conditions: ASO.

Sequence | remaining target (mRNA or protein) (fraction of control)
CACCTTCTTTGACAAGTGGC | 0.42
AAATTTGGCTGAGCACATCG | 0.53
GATCCTCATCTGGTCCAATG | 0.6
AAGGATGCACGTTCTAGGTG | 0.55
CACACAATAGAACGGTCAGA | 0.9
GGAGCCGCCATTGTTGGGAG | 0.91
GCCTCTTGTAACAGTGCTGA | 0.47
TAGCAGCGATATCAATCGAC | 0.55
AACACCAATCTTATTGCACA | 0.98
TGTGTCCTTCCAGGATTTGG | 0.7
GTTCATCACAAAAGAGCAGG | 0.89
GGCTCGGAGCCGCCATTGTT | 0.56
TATCACATCAGTAATCTATT | ≥ 1
CACTACTCCGCATTACTACA | 0.56
GAGATAATCACTTTTGAATT | ≥ 1
TGATGTAGCAGCGATATCAA | 0.72
TTTAAACACTAGCGATTATG | ≥ 1
